From patent US9828390B2, “Tetrahydropyrrolo[3,4-D][1,3]thiazine-derivative as BACE inhibitor” (Eli Lilly and Company, priority 2014, dated 2017)

Assay: Crystal form stability versus relative humidity
Type: physicochemical

Crystal form stability (room temperature and relative humidity greater than about 15%) | Crystal form stability (room temperature and relative humidity less than about 15%) | SMILES
stable crystal form |  | COc1cnc(C(=O)Nc2ccc(F)c([C@]34CN(c5ncc(F)cn5)C[C@@H]3CN=C(N)S4)c2)cn1.O [Example 1B, Crystalline Form 2 N-[3-[(4aR,7aS)-2-Amino-6-(5-fluoropyrimidin-2-yl)-4,4a,5,7-tetrahydropyrrolo[3,4-d][1,3]thiazin-7a-yl]-4-fluoro-phenyl]-5-methoxy-pyrazine-2-carboxamide (hydrated)]
 | stable crystal form | COc1cnc(C(=O)Nc2ccc(F)c([C@]34CN(c5ncc(F)cn5)C[C@H]3CSC(N)=N4)c2)cn1 [Example 1A, Crystalline Form 1 N-[3-[(4aR,7aS)-2-Amino-6-(5-fluoropyrimidin-2-yl)-4,4a,5,7-tetrahydropyrrolo[3,4-d][1,3]thiazin-7a-yl]-4-fluoro-phenyl]-5-methoxy-pyrazine-2-carboxamide]
